According to US9221796B2, “Selective NR2B antagonists” (BRISTOL-MYERS SQUIBB COMPANY, priority 2014, dated 2015):
pKi: −log10 of the molar value. Like-named read-outs stand apart in the source and are kept apart here.

Molecular target: NR2B-subtype NMDA receptors (Rattus norvegicus (Rat), UniProt P35439+Q00960)
Test: Radioligand binding assay (3H Ro 25-6981 competition, forebrain membranes)
Conditions: 3H Ro 25-6981 (4 nM)
Protocol: Radioligand Binding Assay. […] Buchy D; Klingelschmidt A; Messer J; Bleuel Z; Kemp J A; Richards J G. […] Thawed brains were homogenized using a Dounce homogenizer and centrifuged at 48000×g for 20 min. The pellet was resuspended in cold buffer and homogenized again using a Dounce homogenizer. […] After incubation for 1 hr at room temperature, the membrane bound radioligand was harvested on to GF/B filter plates (treated with 0.5% PEI for 1 hr at room temperature). The filter plates were dried at 50° C. for 20 mins, incubated with microscint 20 for 10 minutes and finally, the counts were read on TopCount (Perkin Elmer). […] CPM values were converted to % inhibition and the concentration response curves were plotted using custom made software. Each experiment was repeated at least twice to obtain the final binding Ki values for experimental compounds.

Chain of NR2B-subtype NMDA receptors (Q00960 27-1482, other chains not shown): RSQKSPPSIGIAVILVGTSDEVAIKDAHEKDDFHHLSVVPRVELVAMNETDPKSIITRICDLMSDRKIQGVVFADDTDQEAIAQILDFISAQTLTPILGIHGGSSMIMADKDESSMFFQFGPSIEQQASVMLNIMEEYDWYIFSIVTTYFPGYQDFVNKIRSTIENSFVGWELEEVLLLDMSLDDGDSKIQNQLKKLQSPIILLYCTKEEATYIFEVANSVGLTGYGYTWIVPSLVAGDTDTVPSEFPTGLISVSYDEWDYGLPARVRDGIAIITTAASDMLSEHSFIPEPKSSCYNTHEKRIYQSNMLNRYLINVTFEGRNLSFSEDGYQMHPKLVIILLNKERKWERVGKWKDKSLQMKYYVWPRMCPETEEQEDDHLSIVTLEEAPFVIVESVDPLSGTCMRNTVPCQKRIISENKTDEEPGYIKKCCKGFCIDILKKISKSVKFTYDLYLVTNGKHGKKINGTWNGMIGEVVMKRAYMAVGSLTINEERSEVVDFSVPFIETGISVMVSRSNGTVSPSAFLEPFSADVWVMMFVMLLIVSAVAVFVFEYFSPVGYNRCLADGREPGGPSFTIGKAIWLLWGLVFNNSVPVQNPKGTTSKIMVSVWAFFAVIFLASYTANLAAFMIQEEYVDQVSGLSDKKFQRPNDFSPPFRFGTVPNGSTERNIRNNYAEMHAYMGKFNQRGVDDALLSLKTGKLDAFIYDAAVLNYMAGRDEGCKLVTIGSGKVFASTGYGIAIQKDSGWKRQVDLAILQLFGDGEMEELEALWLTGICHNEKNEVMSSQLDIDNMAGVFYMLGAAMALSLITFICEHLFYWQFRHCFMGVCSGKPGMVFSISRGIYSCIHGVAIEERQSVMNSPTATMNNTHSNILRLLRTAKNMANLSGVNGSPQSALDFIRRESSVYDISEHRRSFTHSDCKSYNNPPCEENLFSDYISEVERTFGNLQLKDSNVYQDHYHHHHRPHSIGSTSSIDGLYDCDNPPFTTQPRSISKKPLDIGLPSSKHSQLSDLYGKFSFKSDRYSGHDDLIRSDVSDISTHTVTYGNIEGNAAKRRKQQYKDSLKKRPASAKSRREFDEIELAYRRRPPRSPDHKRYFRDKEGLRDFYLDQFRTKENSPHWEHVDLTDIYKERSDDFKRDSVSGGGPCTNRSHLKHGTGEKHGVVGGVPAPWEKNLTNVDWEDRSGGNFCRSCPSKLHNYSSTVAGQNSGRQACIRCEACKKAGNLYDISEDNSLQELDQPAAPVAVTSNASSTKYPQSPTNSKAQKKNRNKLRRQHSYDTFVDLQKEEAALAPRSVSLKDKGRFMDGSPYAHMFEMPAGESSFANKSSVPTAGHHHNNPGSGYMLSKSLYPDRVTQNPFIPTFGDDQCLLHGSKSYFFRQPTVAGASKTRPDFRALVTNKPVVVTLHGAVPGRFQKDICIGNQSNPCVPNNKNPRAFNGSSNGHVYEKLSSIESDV

Row | SMILES | pKi (read-out: NR2B Binding Ki) | pKi (listed as 44, E-2, read-out: NR2B Binding Ki)
1 | O=C1[C@@H](N2CCC(c3ccc(O)cc3)C(F)(F)C2)CCN1Cc1ccc(Cl)c(F)c1 (single isomer, unassigned) [Example 107, P-1] | 5.92 | –
2 | O=C1[C@@H](N2CCC(c3ccc(O)cc3)CC2)CCN1Cc1ccc(O)cc1 [Example 25a, (S)-1-(4-Hydroxybenzyl)-3-(4-(4-hydroxyphenyl)piperidin-1-yl)pyrrolidin-2-one] | 5.92 | –
3 | O=C1C(N2CC(c3ccc(O)cc3)C2)CCN1Cc1ccccc1 (centres unmarked) [Example 16, 1-Benzyl-3-(3-(4-hydroxyphenyl)azetidin-1-yl)pyrrolidin-2-one] | 6.25 | –
4 | O=C1C(N2CCC(c3ccc(O)cc3)C(F)(F)C2)CCN1Cc1ccc(C(F)(F)F)cc1 (stereo in doubt) [Example 99, P-2, (3S)-3-(3,3-Difluoro-4-(4-hydroxyphenyl)piperidin-1-yl)-1-(4-(trifluoromethyl)benzyl)-pyrrolidin-2-one] | 7.66 | –
5 | O=C1[C@@H](N2CC[C@@H](c3ccc(O)cc3)[C@H](F)C2)CCN1Cc1ccc(C(F)F)cc1 [Example 114, P-2, (S)-1-(4-(difluoromethyl)benzyl)-3-((3S,4S)-3-fluoro-4-(4-hydroxyphenyl)piperidin-1-yl)pyrrolidin-2-one] | 6.74 | –
6 | O=C1[C@@H](N2CC[C@H](c3ccc(O)cc3)[C@@H](F)C2)CCN1Cc1ccc(Cl)c(F)c1 [Example 82, (S)-1-(4-Chloro-3-fluorobenzyl)-3-((3R,4R)-3-fluoro-4-(4-hydroxyphenyl)piperidin-1-yl)pyrrolidin-2-one] | 6.07 | –
7 | O=C1C(N2CCCC(c3ccc(O)cc3)C2)CCCN1Cc1ccc(Cl)cc1 (centres unmarked) [Example 42, 1′-(4-Chlorobenzyl)-3-(4-hydroxyphenyl)-[1,3′-bipiperidin]-2′-one] | 6.14 | –
8 | Cc1ccc(CN2CCC(N3CCCC(c4ccc(O)cc4)C3)C2=O)cc1 (centres unmarked) [Example 3, 1-(4-Methylbenzyl)-3-(3-(4-hydroxyphenyl)piperidin-1-yl)pyrrolidin-2-one] | 5.88 | –
9 | O=C1C(N2CCC(c3ccc(O)cc3)C(F)(F)C2)CCN1Cc1ccc(F)c(Cl)c1 (centres unmarked) [Example 100, 1-(3-Chloro-4-fluorobenzyl)-3-(3,3-difluoro-4-(4-hydroxyphenyl)piperidin-1-yl)pyrrolidin-2-one] | 6.24 | –
10 | C[C@@H](c1ccccc1)N1CCC(N2CC[C@@H](c3ccc(O)cc3)[C@H](F)C2)C1=O (stereo partly drawn) [Example 68, 3-((3S,4S)-3-Fluoro-4-(4-hydroxyphenyl)piperidin-1-yl)-1-(1-phenylethyl)pyrrolidin-2-one] | 6.15 | –
11 | O=C1C(N2CCC(c3ccc(O)cc3)C(F)(F)C2)CCN1Cc1ccc(Cl)c(Cl)c1 (centres unmarked) [Example 109, 1-(3,4-Dichlorobenzyl)-3-(3,3-difluoro-4-(4-hydroxyphenyl)piperidin-1-yl)pyrrolidin-2-one] | 6.54 | –
12 | O=C1[C@@H](N2CC[C@@H](c3ccc(O)cc3)[C@H](F)C2)CCN1c1ccc(OC(F)F)c(Cl)c1 [Example 62, (S)-1-(3-Chloro-4-(difluoromethoxy)phenyl)-3-((3S,4S)-3-fluoro-4-(4-hydroxyphenyl)-piperidin-1-yl)pyrrolidin-2-one] | 8.17 | –
13 | O=C1[C@H](N2CC[C@H](c3ccc(O)cc3)[C@@H](F)C2)CCN1Cc1ccccc1 [Example 75, (R)-1-Benzyl-3-((3R,4R)-3-fluoro-4-(4-hydroxyphenyl)-piperidin-1-yl)pyrrolidin-2-one] | 8.10 | –
14 | O=C1[C@H](N2CCC(c3ccc(O)cc3)C(F)(F)C2)CCN1c1ccc(OC(F)F)c(Cl)c1 (stereo partly drawn) [Example 101, P-2, (3R)-1-(3-Chloro-4-(difluoromethoxy)phenyl)-3-(3,3-difluoro-4-(4-hydroxyphenyl)-piperidin-1-yl)pyrrolidin-2-one] | 7.96 | –
15 | O=C1[C@@H](N2CC[C@@H](c3ccc(O)cc3)[C@H](F)C2)CCN1Cc1ccccc1 [Example 57, (S)-1-Benzyl-3-((3S,4S)-3-fluoro-4-(4-hydroxyphenyl)piperidin-1-yl)pyrrolidin-2-one] | 6.31 | –
16 | O=C1C(N2CCC(c3ccc(O)cc3)C(O)C2)CCN1Cc1ccc(F)cc1 (single isomer, unassigned) [Example 9c, 1-(4-Fluorobenzyl)-3-(3-hydroxy-4-(4-hydroxyphenyl)-piperidin-1-yl)pyrrolidin-2-one] | 5.30 | –
17 | C[C@@H](c1ccc(F)cc1)N1CCC(N2CCC(c3ccc(O)cc3)C(F)(F)C2)C1=O (single isomer, unassigned) [Example 56, P-3] | ≤ 5.30 | –
18 | O=C1[C@H](N2CC[C@H](c3ccc(O)cc3)[C@@H](F)C2)CCN1Cc1ccc(F)cc1 [Example 48, P-4] | 7.89 | –
19 | O=C1[C@H](N2CCC(c3ccc(O)cc3)CC2)CCN1Cc1ccc(O)c(O)c1 [Example 43, (R)-1-(3,4-Dihydroxybenzyl)-3-(4-(4-hydroxyphenyl)piperidin-1-yl)pyrrolidin-2-one] | 6.82 | –

Row | SMILES | pKi (read-out: NR2B Binding Ki) | pKi (listed as 44, E-2, read-out: NR2B Binding Ki)
20 | O=C1[C@H](N2CC[C@H](c3ccc(O)cc3)[C@@H](F)C2)CCN1Cc1ccc(Cl)cc1 [Example 81, (R)-1-(4-Chlorobenzyl)-3-((3R,4R)-3-fluoro-4-(4-hydroxyphenyl)piperidin-1-yl)pyrrolidin-2-one] | 8.42 | –
21 | O=C1[C@H](N2CCC(c3ccc(O)cc3)C(F)(F)C2)CCN1Cc1ccc(Cl)c(F)c1 (stereo partly drawn) [Example 96, P-2, (3R)-1-(4-Chloro-3-fluorobenzyl)-3-(3,3-difluoro-4-(4-hydroxyphenyl)piperidin-1-yl)pyrrolidin-2-one] | 7.74 | –
22 | O=C1C(N2CCC(c3ccc(O)cc3)C(F)(F)C2)CCN1Cc1ccc(C(F)(F)F)cc1 (single isomer, unassigned) [Example 53, P-2, 3-(3,3-Difluoro-4-(4-hydroxyphenyl)piperidin-1-yl)-1-(4-(trifluoromethyl)-benzyl)pyrrolidin-2-one] | 8.24 | –
23 | O=C1[C@H](N2CC[C@@H](c3ccc(O)cc3)[C@H](F)C2)CCN1Cc1ccccc1 [Example 58, (R)-1-Benzyl-3-((3S,4S)-3-fluoro-4-(4-hydroxyphenyl)piperidin-1-yl)pyrrolidin-2-one] | 8.06 | –
24 | O=C1C(N2CCC(c3ccc(O)cc3)C(F)(F)C2)CCN1Cc1ccccc1 (single isomer, unassigned) [Example 91, P-2, 1-Benzyl-3-(3,3-difluoro-4-(4-hydroxyphenyl)piperidin-1-yl)pyrrolidin-2-one] | 7.85 | –
25 | O=C1[C@@H](N2CC[C@H](c3ccc(O)cc3)[C@@H](F)C2)CCN1Cc1ccc(C(F)(F)F)cc1 [Example 87, (S)-3-((3R,4R)-3-Fluoro-4-(4-hydroxyphenyl)piperidin-1-yl)-1-(4-(trifluoromethyl)benzyl)-pyrrolidin-2-one] | 6.27 | –
26 | O=C1[C@H](N2CCC(c3ccc(O)cc3)CC2)CCN1Cc1ccc(O)cc1 [Example 25b, (R)-1-(4-Hydroxybenzyl)-3-(4-(4-hydroxyphenyl)piperidin-1-yl)pyrrolidin-2-one] | 8.28 | –
27 | Cc1cc(O)ccc1C1CCN(C2CCN(Cc3ccccc3)C2=O)CC1 (centres unmarked) [Example 29, 1-Benzyl-3-(4-(4-hydroxy-2-methylphenyl)piperidin-1-yl)pyrrolidin-2-one] | 7.11 | –
28 | O=C1[C@@H](N2CCC(c3ccc(O)cc3)C(F)(F)C2)CCN1Cc1ccc(F)c(F)c1 (single isomer, unassigned) [Example 108, P-1] | 5.92 | –
29 | O=C1C(N2CCC(c3ccc(O)cc3)C(O)C2)CCN1Cc1ccc(F)cc1 (single isomer, unassigned) [Example 44, E-2, 1-(4-Fluorobenzyl)-3-(cis-3-hydroxy-4-(4-hydroxyphenyl)piperidin-1-yl)pyrrolidin-2-one] | – | 8.24
30 | O=C1[C@@H](N2CC[C@H](c3ccc(O)cc3)[C@@H](F)C2)CCN1Cc1ccc(F)cc1 [Example 48, P-2] | 5.77 | –
31 | O=C1C(N2CCC(c3ccc(O)cc3)CC2)CCN1Cc1ccc(Cl)cc1 (racemic) [Example 17, 1-(4-Chlorobenzyl)-3-(4-(4-hydroxyphenyl)piperidin-1-yl)pyrrolidin-2-one] | 8.80 | –
32 | O=C1[C@H](N2CCC(c3ccc(O)cc3)CC2)CCN1Cc1ccc(Cl)cc1 [Example 18b, (R)-1-(4-Chlorobenzyl)-3-(4-(4-hydroxyphenyl)piperidin-1-yl)pyrrolidin-2-one] | 8.82 | –
33 | O=C1C(N2CCC(c3ccc(O)cc3)CC2)CCN1Cc1ccc(O)cc1 (centres unmarked) [Example 24, 1-(4-Hydroxybenzyl)-3-(4-(4-hydroxyphenyl)piperidin-1-yl)pyrrolidin-2-one] | 8.33 | –
34 | O=C1C(N2CCC(c3ccc(O)cc3)CC2)CCCN1Cc1ccccc1 (centres unmarked) [Example 40, 1′-Benzyl-4-(4-hydroxyphenyl)-[1,3′-bipiperidin]-2′-one] | 6.32 | –
35 | Cc1cccc(CN2CCC(N3CC[C@H](c4ccc(O)cc4)[C@@H](F)C3)C2=O)c1 (stereo partly drawn) [Example 77, 3-((3R,4R)-3-Fluoro-4-(4-hydroxyphenyl)piperidin-1-yl)-1-(3-methylbenzyl)pyrrolidin-2-one] | 7.57 | –
36 | O=C1[C@H](N2CC[C@H](c3ccc(O)cc3)[C@@H](F)C2)CCN1Cc1ccc(Cl)c(F)c1 [Example 83, (R)-1-(4-Chloro-3-fluorobenzyl)-3-((3R,4R)-3-fluoro-4-(4-hydroxyphenyl)piperidin-1-yl)pyrrolidin-2-one] | 8.30 | –
37 | O=C1[C@H](N2CCC(c3ccc(O)cc3)CC2)CCN1Cc1ccccc1 [Example 13b, (R)-1-Benzyl-3-(4-(4-hydroxyphenyl)piperidin-1-yl)pyrrolidin-2-one] | 8.80 | –
38 | O=C1C(N2CCC(c3ccc(O)cc3)C(F)(F)C2)CCN1Cc1ccc(C(F)(F)F)cc1 (single isomer, unassigned) [Example 53, P-1, 3-(3,3-Difluoro-4-(4-hydroxyphenyl)piperidin-1-yl)-1-(4-(trifluoromethyl)-benzyl)pyrrolidin-2-one] | 5.96 | –
